Test results: PubChem BioAssay (NCI)
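Cultured in 96-well plates, cells were exposed to test compound for 48 hours across five concentrations. TGI marks complete inhibition of growth.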

Assays:
Experiment in all cases: growth of human tumour cells (NCI), 48 h
HS 578T breast = tested on: HS 578T breast
COLO 205 colon = tested on: COLO 205 colon
SW-620 colon = tested on: SW-620 colon
HCC-2998 colon = tested on: HCC-2998 colon
HOP-92 NSCLC = tested on: HOP-92 NSCLC
SR leukemia = tested on: SR leukemia
MDA-N = tested on: MDA-N
SK-MEL-2 melanoma = tested on: SK-MEL-2 melanoma
HCT-15 colon = tested on: HCT-15 colon
DMS 114 small cell lung = tested on: DMS 114 small cell lung
M19-MEL melanoma = tested on: M19-MEL melanoma
DLD-1 colon = tested on: DLD-1 colon

Row | Structure (SMILES) | TGI (HS 578T breast) [µM] | TGI (COLO 205 colon) [µM] | TGI (SW-620 colon) [µM] | TGI (HCC-2998 colon) [µM] | TGI (HOP-92 NSCLC) [µM] | TGI (SR leukemia) [µM] | TGI (MDA-N) [µM] | TGI (SK-MEL-2 melanoma) [µM] | TGI (HCT-15 colon) [µM] | TGI (DMS 114 small cell lung) [µM] | TGI (M19-MEL melanoma) [µM] | TGI (DLD-1 colon) [µM]
1 | CCOC(=O)C(Cc1ccccc1)(Cc1ccc(O)cn1)NC(=O)c1ccccc1 (centres undefined) | 63.6 | 68.4 | > 100 | > 100 | 59.1 | > 100 | 23 | 43.9 | > 100 | – | – | –
2 | N#CCc1nc(C#N)c(N)o1 | > 100 | > 100 | > 100 | > 100 | > 100 | > 100 | > 100 | > 100 | > 100 | – | – | –
3 | CC(C)(C)OC(=O)N1C(OP(=O)(Oc2ccccc2)Oc2ccccc2)=COc2cccnc21 | > 100 | > 100 | > 100 | > 100 | 92.5 | 82.9 | > 100 | 55.7 | > 100 | – | – | –
4 | O=[As](O)(O)c1cc(N=Nc2ccc(-c3ccc(N=Nc4cc([As](=O)(O)O)c(O)cc4O)cc3)cc2)c(O)cc1O | – | > 100 | > 100 | > 100 | > 100 | > 100 | – | > 100 | > 100 | > 100 | > 100 | > 59.2
5 | CCCCCCCCCCCCCCCCNc1nc(=O)n(C2CC(O)C(CO)O2)cc1F (centres undefined) | 38.7 | 48.6 | 32.1 | 14.2 | 25.1 | 26.3 | 72.1 | 40.3 | 26.1 | – | – | –
6 | Cc1ccc(S(=O)(=O)N2CCN(CCN(C)CCN3CCN(S(=O)(=O)c4ccc(C)cc4)CC3)CC2)cc1 | 42.2 | 38.9 | 31.7 | 29.4 | 35.6 | 36.3 | 39.7 | 33.6 | 31.9 | – | – | –
7 | COc1ccc2c(c1)CCc1c-2n(CCN(C)C)c2ccc(OC)cc12 | 77 | > 100 | 74.5 | > 100 | > 100 | > 100 | 95.2 | 40 | > 100 | – | – | –
8 | COc1cc2ccnc3c2c(c1O)N(C)C=C3 | 53.1 | > 63.1 | > 100 | 48.2 | > 100 | > 100 | > 38.4 | 33.9 | > 64.2 | – | – | –
9 | C=C1C[C@]23C[C@@]1(O)CC[C@H]2[C@@]12C=C[C@H](O)[C@@](C)(C(=O)O1)[C@H]2[C@@H]3C(=O)O | – | > 100 | > 100 | > 100 | > 100 | > 100 | – | > 100 | > 100 | > 100 | > 100 | > 100
10 | O=C1C=CC(=O)c2ncccc21 | 56.4 | 7.64 | 4.62 | 21 | 3.25 | 5.88 | 16.1 | 28.2 | 5.72 | – | – | –
11 | COS(=O)c1cc(Cl)cc(Cl)c1O (centres undefined) | – | – | – | > 100 | – | > 100 | – | > 100 | – | > 100 | > 100 | > 100
12 | CCOC(=O)C(O)(NC(C)=O)C(F)(F)F (centres undefined) | > 100 | > 100 | > 100 | > 100 | > 100 | > 100 | > 100 | > 100 | > 100 | – | – | –
13 | CCCCCCCCCCCCCCCCCCOCC(O)COP(=O)(O)OCC1OC(n2cc(F)c(=O)[nH]c2=O)CC1O (centres undefined) | 23.5 | 21.9 | > 61.4 | 2.92 | 24.2 | 22.6 | 28.2 | 43.2 | 23.7 | – | – | –
14 | CCOC(=O)C1=C(C)NC(=S)NC1c1cccc(O)c1 (centres undefined) | > 100 | > 82.3 | > 100 | > 90.4 | > 84.3 | > 95.6 | 39.3 | 79 | > 100 | – | – | –
15 | Cc1cc(S(=O)(=O)Nc2nnc3cc(C(F)(F)F)cc(C)n23)c(S)cc1Cl | > 100 | > 100 | > 100 | > 70.1 | > 100 | > 100 | > 100 | > 100 | > 100 | – | – | –
